Laboratory results from US20170362210A1, “ANTI-ESTROGENIC COMPOUNDS” (PFIZER INC., priority 2015, published 2017).
Read-outs that look alike come from different tables or passages of the source. Marks after values point to notes of the source that are not given here.

Tests used:
[1] = tested on: estrogen-responsive reporter gene (ERE-tk109-Luc) in MCF-7 cells; assay: Inhibition of E2-induced transcription, ERE-tk109-Luc reporter gene in MCF-7 cells; format: cell-based, human; details: 100 pM 17β-estradiol (E2), 18-22 hours, read-out: IC50, inhibition of E2-induced transcription in breast cells
Method: Representative compounds were tested for their inhibitory activity of estrogen according to the assay methods described in Hodges-Gallagher, L., Valentine, C. V., El Bader, S. and Kushner, P. J. (2007) “Histone Deacetylase Inhibitors Enhance the Efficacy of Hormonal Therapy Agents on Breast Cancer Cells and Blocks Anti-estrogen-Driven Uterine Cell Proliferation” Breast Cancer Res Treat, November; 105(3):297-309. Specifically, an estrogen-responsive reporter gene (ERE-tk109-Luc) was transiently transfected into MCF-7 cells and treated with anti-estrogens in triplicate in the presence of 100 pM 17β-estradiol (E2) for 18-22 hours. Luciferase activity was normalized to activity of E2 alone and IC50's were calculated using the least squares fit method.

[2] = tested on: MCF-7 breast cancer cells; assay: Inhibition of E2-stimulated proliferation of MCF-7 breast cancer cells; format: cell-based, human; details: 100 pM E2, hormone-depleted medium, 6-8 days
Method: Proliferation of MCF-7 breast cancer cells was measured using a fluorescent DNA binding dye 6-8 days after treatment in triplicate with representative compounds in the presence of 100 pM E2 in hormone-depleted medium. IC50's were calculated from individual experiments as in Example 25.

ERα = molecular target: T1, ERα (Homo sapiens, UniProt P03372); assay: ERα expression in MCF-7 cell lysates (immunoblot); format: cell-based; details: MCF-7 cells, 100 nM compound, serum-free medium, 24 hours, immunoblot band intensity
T1 construct: ERα expression was detected in MCF-7 cell lysates treated with 100 nM antiestrogens in serum-free medium for 24 hours; endogenous in cells; host or cells: MCF-7
T1 sequence (P03372 1-595): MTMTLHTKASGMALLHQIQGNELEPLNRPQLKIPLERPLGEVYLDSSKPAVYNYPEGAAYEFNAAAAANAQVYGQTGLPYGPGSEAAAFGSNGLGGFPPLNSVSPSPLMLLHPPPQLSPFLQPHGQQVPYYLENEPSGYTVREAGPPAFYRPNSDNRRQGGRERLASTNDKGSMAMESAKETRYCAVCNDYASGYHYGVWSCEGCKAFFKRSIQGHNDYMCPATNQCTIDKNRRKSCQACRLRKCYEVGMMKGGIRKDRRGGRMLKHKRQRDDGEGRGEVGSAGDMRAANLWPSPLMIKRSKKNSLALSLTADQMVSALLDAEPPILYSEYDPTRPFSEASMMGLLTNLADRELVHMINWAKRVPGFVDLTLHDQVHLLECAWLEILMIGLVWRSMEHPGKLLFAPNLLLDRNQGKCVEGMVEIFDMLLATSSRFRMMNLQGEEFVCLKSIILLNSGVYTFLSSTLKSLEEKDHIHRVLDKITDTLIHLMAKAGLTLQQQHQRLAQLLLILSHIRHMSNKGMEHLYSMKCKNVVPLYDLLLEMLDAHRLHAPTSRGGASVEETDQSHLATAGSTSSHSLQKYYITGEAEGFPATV
Method: ERα expression was detected in MCF-7 cell lysates treated with 100 nM antiestrogens in serum-free medium for 24 hours and immunoblotted with an antibody specific to ERα.
Band intensity was normalized relative to vehicle for each individual experiment and listed in Table 3 (Relative change ERα levels (% vehicle)).

[3] = tested on: AP activity in ECC-1 cells; assay: Alkaline phosphatase (AP) assay in ECC-1 uterine cells, induction of AP activity; format: cell-based, human; details: 3 days, normalized to 500 pM E2, maximum activity observed regardless of dose
Method: (§1) Method for performing the alkaline phosphatase (AP) assay. ECC-1 cells (American Type Culture Collection, Manassas, Va.) were maintained in RPMI medium plus 10% fetal bovine serum at 37° C. At the beginning of the assay trypsinized cells were resuspended in RPMI medium plus 5% charcoal dextran stripped serum (CDSS, (Hyclone, Logan, Utah)) and plated at a density of 25-50 k cells per well into a 96-well plate for at least 6 hours. Representative compounds were diluted in serum-free medium and added 1:1 to plated cells in replicate wells (2.5% CDSS final). Plates were incubated for 3 days at 37° C. and subsequently frozen at −80° C. to lyse cells after removing the medium. Thawed plates were incubated with a chromogenic substrate of AP, p-nitrophenyl phosphate (Invitrogen, Grand Island, N.Y.), for 40 minutes at 40° C. Absorbances were read at 405 nm using a plate spectrophotometer. AP activity was normalized to 500 pM 17β-estradiol (E2), reported as the maximum activity observed for each individual experiment, regardless of dose.

[4] = tested on: AP activity in ECC-1 cells; assay: Alkaline phosphatase (AP) assay in ECC-1 cells co-treated with 500 pM E2; format: cell-based, human; details: 3 days
Method: as §1
AP activity was assayed as in Example 28 but cells were co-treated with 500 pM E2.

[5] = Homo sapiens, MCF7, MCF-7 cells

| SMILES | IC50 ([1]; MCF-7 cells) | IC50 ([2]; MCF-7 cells) | Relative change ERα levels (% vehicle) (ERα) | IC50 [2, 5] | IC50 [1, 5] | Induction of AP activity in uterine cells (% E2) [3] | AP activity (% E2), cells co-treated with 500 pM E2 [4] |
| --- | --- | --- | --- | --- | --- | --- | --- |
| CCCN1CC(Cc2ccc(C3Oc4cc(O)ccc4C(C)=C3c3ccc(O)cc3)cc2)C1 (single isomer, unassigned) [Compound 102, 3-(4-hydroxyphenyl)-4-methyl-2-(4-((1-propylazetidin-3-yl)methyl)phenyl)-2H-chromen-7-ol] | 2 nM | 6 nM | 50 % veh |  |  | 9 % E2 | 8 % E2 |
| CCCN1CC(Oc2ccc(C3Oc4cc(O)ccc4C(C)=C3c3ccc(O)cc3)cc2)C1 (single isomer, unassigned) [Compound 105, 3-(4-hydroxyphenyl)-4-methyl-2-(4-((1-propylazetidin-3-yl)oxy)phenyl)-2H-chromen-7-ol] | 4 nM | 10 nM | 39 % veh |  |  | 4 % E2 | 4 % E2 |
| CCCN1CC(Oc2ccc(C3Oc4cc(O)ccc4C(C)=C3c3ccc(O)cc3)cc2)C1 (single isomer, unassigned) [Compound 106, 3-(4-hydroxyphenyl)-4-methyl-2-(4-((1-propylazetidin-3-yl)oxy)phenyl)-2H-chromen-7-ol] | 54 nM | 114 nM | 53 % veh |  |  | 17 % E2 | 44 % E2 |
| CCCN1CC(Oc2ccc(C3Oc4cc(O)ccc4C(C)=C3c3ccc(O)cc3)cc2F)C1 (single isomer, unassigned) [Compound 108, 2-(3-fluoro-4-((1-propylazetidin-3-yl)oxy)phenyl)-3-(4-hydroxyphenyl)-4-methyl-2H-chromen-7-ol] | 1 nM | 9 nM |  |  |  | 3 % E2 | 4 % E2 |
| CC1=C(c2ccc(O)cc2)C(c2ccc(OC3CN(CCC(F)(F)F)C3)cc2)Oc2cc(O)ccc21 (single isomer, unassigned) [Compound 110, 3-(4-hydroxyphenyl)-4-methyl-2-(4-((1-(3,3,3-trifluoropropyl)azetidin-3-yl)oxy)phenyl)-2H-chromen-7-ol] | 14 nM |  | 104 % veh | 216 nM |  | 35 % E2 | 36 % E2 |
| CCCN1CC(Oc2ccc(C3Oc4cc(O)ccc4C(C)=C3c3ccc(O)cc3)cc2F)C1 (stereo not drawn) [Compound 107, 2-(3-fluoro-4-((1-propylazetidin-3-yl)oxy)phenyl)-3-(4-hydroxyphenyl)-4-methyl-2H-chromen-7-ol] |  |  |  | 13 nM | 5 nM | 3 % E2 | 4 % E2 |
| CCCN1CC(Oc2ccc(C3Oc4cc(O)ccc4C(C)=C3c3ccccc3)cc2)C1 (stereo not drawn) [Compound 114, 4-methyl-3-phenyl-2-(4-((1-propylazetidin-3-yl)oxy)phenyl)-2H-chromen-7-ol] |  |  |  | 14 nM | 5 nM | 15 % E2 | 23 % E2 |
| CCCN1CC(Oc2ccc(C3Oc4cc(O)ccc4C(C)=C3c3ccc(F)cc3)cc2)C1 (stereo not drawn) [Compound 115, 3-(4-fluorophenyl)-4-methyl-2-(4-((1-propylazetidin-3-yl)oxy)phenyl)-2H-chromen-7-ol] |  |  |  | 15 nM | 10 nM | 20 % E2 | 42 % E2 |
| CCCN1CC(Oc2ccc(C3Oc4cc(O)ccc4C(C)=C3c3ccc(F)cc3Cl)cc2)C1 (stereo not drawn) [Compound 116, 3-(2-chloro-4-fluorophenyl)-4-methyl-2-(4-((1-propylazetidin-3-yl)oxy)phenyl)-2H-chromen-7-ol] |  |  |  | 5 nM | 5 nM | 9 % E2 | 24 % E2 |

The next lines start with results.

| IC50 ([1]; MCF-7 cells) | IC50 ([2]; MCF-7 cells) | Relative change ERα levels (% vehicle) (ERα) | IC50 [2, 5] | IC50 [1, 5] | SMILES | Induction of AP activity in uterine cells (% E2) [3] | AP activity (% E2), cells co-treated with 500 pM E2 [4] |
| --- | --- | --- | --- | --- | --- | --- | --- |
| 27 nM | 59 nM | 55 % veh |  |  | CCCN1CC(Cc2ccc(C3Oc4cc(O)ccc4C(C)=C3c3ccc(O)cc3)cc2)C1 (single isomer, unassigned) [Compound 103, 3-(4-hydroxyphenyl)-4-methyl-2-(4-((1-propylazetidin-3-yl)methyl)phenyl)-2H-chromen-7-ol] | 23 % E2 | 36 % E2 |
| 109 nM | 40 nM |  |  |  | CCCN1CC(Oc2ccc(C3Oc4cc(O)ccc4C(C)=C3c3ccc(O)cc3)cc2F)C1 (single isomer, unassigned) [Compound 109, 2-(3-fluoro-4-((1-propylazetidin-3-yl)oxy)phenyl)-3-(4-hydroxyphenyl)-4-methyl-2H-chromen-7-ol] | 18 % E2 | 42 % E2 |
| 165 nM | > 300 nM | 82 % veh |  |  | CC1=C(c2ccc(O)cc2)C(c2ccc(OC3CN(CCC(F)(F)F)C3)cc2)Oc2cc(O)ccc21 (single isomer, unassigned) [Compound 111, 3-(4-hydroxyphenyl)-4-methyl-2-(4-((1-(3,3,3-trifluoropropyl)azetidin-3-yl)oxy)phenyl)-2H-chromen-7-ol] | 32 % E2 | 61 % E2 |
| 2 nM | 7 nM | 35 % veh |  |  | CCCN1CC(Cc2ccc(C3Oc4cc(O)ccc4C(C)=C3c3ccc(O)cc3)cc2F)C1 (single isomer, unassigned) [Compound 112, 2-(3-fluoro-4-((1-propylazetidin-3-yl)methyl)phenyl)-3-(4-hydroxyphenyl)-4-methyl-2H-chromen-7-ol] | 5* % E2 | 4 % E2 |
| 13 nM | 24 nM | 38 % veh |  |  | CCCN1CC(Cc2ccc(C3Oc4cc(O)ccc4C(C)=C3c3ccc(O)cc3)cc2F)C1 (single isomer, unassigned) [Compound 113, 2-(3-fluoro-4-((1-propylazetidin-3-yl)methyl)phenyl)-3-(4-hydroxyphenyl)-4-methyl-2H-chromen-7-ol] | 17 % E2 | 15 % E2 |
| 4 nM | 33 nM | 45 % veh |  |  | CCCN1CC(Oc2ccc(C3Oc4cc(O)ccc4C(C)=C3c3ccccc3)cc2)C1 (single isomer, unassigned) [Compound 117, 4-methyl-3-phenyl-2-(4-((1-propylazetidin-3-yl)oxy)phenyl)-2H-chromen-7-ol] | 16 % E2 | 8 % E2 |
